# Experimental data: ChEMBL document CHEMBL1201862, “PubChem BioAssay data set” (2004)
# Activity calls are given as the source filed them.
# Tests used:
# [1] = test system: INS1; experiment: beta cell apoptosis inhibitors, cytokine rescue, dose response, luminescence, retest (AID 449756); assay type: functional, cell-based; conditions: Rattus norvegicus;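 also: cell death triggered by IL-1 beta plus TNF-alpha plus IFN-gamma mixture; protective hits raise ATP signal compared with cytokine alone wells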
# [2] = Luminescence Cell-Based Dose Confirmation HTS to Identify Inhibitors of Platelet Dense Granule Release. [Related pubchem assays: 1663 (Primary HTS), 1678 (Summary of Project)]; assay type: functional
# [3] = molecular target: Luciferin 4-monooxygenase (Photinus pyralis, UniProt P08659); experiment: firefly luciferase enzyme inhibitors, dose response, biochemical, luminescence (AID 1891)
# [4] = Luminescence Cell-Based Dose Retest to Confirm Inhibitors of Cancer Stem Cells. [Related pubchem assays (depositor defined):AID2717, AID2721]; assay type: functional; conditions: Homo sapiens
# [5] = molecular target: T1, Protein skinhead-1 (Caenorhabditis elegans, UniProt P34707); assay type: functional
# T1 sequence (P34707 whole entry): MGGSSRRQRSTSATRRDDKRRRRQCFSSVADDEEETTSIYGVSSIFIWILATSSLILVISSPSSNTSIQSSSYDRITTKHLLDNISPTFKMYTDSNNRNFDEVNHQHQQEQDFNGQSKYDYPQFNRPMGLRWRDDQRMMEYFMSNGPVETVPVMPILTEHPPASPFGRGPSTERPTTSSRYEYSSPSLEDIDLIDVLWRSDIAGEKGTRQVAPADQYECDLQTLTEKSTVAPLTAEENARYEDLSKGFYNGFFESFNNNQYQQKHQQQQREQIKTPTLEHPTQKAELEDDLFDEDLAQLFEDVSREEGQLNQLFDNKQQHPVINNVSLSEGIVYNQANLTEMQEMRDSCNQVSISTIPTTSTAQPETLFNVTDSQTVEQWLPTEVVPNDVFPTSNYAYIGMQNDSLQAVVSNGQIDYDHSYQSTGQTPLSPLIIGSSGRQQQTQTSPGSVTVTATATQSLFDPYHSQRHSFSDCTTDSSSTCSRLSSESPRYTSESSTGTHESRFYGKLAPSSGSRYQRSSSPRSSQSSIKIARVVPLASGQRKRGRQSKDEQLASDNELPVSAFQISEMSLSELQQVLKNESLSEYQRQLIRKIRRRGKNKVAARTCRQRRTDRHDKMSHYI
# [6] = molecular target: T2, Heat shock factor protein 1 (Mus musculus, UniProt P38532); experiment: inhibition of MG132-induced HSE-luciferase signal, confirmation, cell-based, NIH3T3, luminescence, dose retest (AID 2382); assay type: functional;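 also: NIH3T3 fibroblasts with HSF1-driven luciferase reporter stressed by proteasome inhibitor MG132; luminescence from HSF1-driven luciferase expression after 8 hours of MG132 stress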
# T2 sequence (P38532 whole entry): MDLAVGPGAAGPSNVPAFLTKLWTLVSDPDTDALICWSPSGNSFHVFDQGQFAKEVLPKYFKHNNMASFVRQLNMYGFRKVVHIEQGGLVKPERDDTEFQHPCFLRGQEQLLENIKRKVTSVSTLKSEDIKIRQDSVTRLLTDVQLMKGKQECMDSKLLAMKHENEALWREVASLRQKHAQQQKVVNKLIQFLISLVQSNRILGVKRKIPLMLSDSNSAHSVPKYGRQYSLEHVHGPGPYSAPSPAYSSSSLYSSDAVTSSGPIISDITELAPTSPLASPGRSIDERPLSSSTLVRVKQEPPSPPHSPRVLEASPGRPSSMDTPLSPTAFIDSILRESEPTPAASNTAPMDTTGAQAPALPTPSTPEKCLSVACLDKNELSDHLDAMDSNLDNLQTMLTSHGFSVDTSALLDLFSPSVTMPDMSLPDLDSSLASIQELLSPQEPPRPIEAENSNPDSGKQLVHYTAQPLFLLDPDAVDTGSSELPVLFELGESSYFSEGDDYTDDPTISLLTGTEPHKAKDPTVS
# [7] = molecular target: Cytochrome P450 3A4 (Homo sapiens, UniProt P08684);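 also: CYP3A4 tested as one member of a cytochrome P450 panel screen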
# [8] = test system: Streptococcus; experiment: Group A Streptococcus viability loss, dose response, counter-screen for streptokinase expression inhibitor project, luminescence, BacTiterGlo (AID 1915); assay type: functional, organism-based;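 also: potency for reduction of bacterial viability or growth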
# [9] = test system: Streptococcus sp. 'group A'; experiment: growth inhibition of control SK(-) GAS strain, dose response, counter-screen for streptokinase expression inhibitor project, luminescence, kanamycin, BacTiterGlo, confirmation (AID 1900); assay type: functional, organism-based
# [10] = molecular target: T3, Streptokinase A (Streptococcus pyogenes serotype M1, UniProt P10520); experiment: S. pyogenes streptokinase expression inhibitors, potency, dose response, plasminogen activation absorbance, OD405 (AID 1914); assay type: functional, Streptococcus pyogenes M1 GAS;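 also: secreted streptokinase activity via plasminogen activation per viability signal from cell pellet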
# T3 sequence (P10520 whole entry): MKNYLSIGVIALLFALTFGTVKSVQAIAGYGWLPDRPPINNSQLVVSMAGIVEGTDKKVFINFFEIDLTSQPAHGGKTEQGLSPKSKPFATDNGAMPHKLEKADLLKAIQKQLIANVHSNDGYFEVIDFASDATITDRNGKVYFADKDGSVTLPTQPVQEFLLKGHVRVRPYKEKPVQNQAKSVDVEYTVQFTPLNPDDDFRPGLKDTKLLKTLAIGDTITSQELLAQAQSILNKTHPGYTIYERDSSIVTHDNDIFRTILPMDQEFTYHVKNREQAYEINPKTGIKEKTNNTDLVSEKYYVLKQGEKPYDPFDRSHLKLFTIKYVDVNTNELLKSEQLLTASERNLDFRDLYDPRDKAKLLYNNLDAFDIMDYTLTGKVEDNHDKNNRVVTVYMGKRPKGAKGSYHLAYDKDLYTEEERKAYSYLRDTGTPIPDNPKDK
# [11] = molecular target: Cytochrome P450 2C9 (Homo sapiens, UniProt P11712)
# [12] = molecular target: T4, Cytochrome P450 1A2 (Homo sapiens, UniProt P05177);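 also: PubChem cytochrome P450 panel assay, CYP1A2 panel member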
# T4 sequence (P05177 whole entry): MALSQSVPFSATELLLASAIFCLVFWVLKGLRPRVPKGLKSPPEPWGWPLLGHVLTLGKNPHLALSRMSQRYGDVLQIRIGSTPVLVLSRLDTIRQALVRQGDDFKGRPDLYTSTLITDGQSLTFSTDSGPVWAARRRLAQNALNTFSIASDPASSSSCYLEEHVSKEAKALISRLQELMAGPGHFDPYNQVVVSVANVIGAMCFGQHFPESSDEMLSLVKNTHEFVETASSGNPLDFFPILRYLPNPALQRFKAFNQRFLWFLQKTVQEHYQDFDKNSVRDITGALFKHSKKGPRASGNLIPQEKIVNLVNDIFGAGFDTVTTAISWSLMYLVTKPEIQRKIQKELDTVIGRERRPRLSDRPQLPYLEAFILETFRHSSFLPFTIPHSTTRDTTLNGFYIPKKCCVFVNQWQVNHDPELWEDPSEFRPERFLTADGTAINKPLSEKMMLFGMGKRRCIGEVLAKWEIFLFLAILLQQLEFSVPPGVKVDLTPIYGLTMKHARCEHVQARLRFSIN
# Chain of Luciferin 4-monooxygenase (P08659 whole entry): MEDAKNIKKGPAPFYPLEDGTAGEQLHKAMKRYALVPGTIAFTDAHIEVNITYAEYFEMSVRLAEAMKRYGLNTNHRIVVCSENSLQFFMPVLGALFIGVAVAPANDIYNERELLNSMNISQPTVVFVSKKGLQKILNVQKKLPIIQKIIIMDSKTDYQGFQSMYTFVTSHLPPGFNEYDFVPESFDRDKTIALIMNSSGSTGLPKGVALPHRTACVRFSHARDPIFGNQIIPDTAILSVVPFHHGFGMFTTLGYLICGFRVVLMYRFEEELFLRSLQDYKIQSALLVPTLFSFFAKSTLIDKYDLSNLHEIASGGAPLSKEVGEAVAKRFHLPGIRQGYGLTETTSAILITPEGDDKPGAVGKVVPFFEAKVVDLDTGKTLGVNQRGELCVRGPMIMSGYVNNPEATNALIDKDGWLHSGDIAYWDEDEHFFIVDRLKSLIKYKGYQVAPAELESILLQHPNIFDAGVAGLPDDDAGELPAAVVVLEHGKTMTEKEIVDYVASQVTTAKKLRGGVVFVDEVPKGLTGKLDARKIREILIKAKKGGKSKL
# Chain of Cytochrome P450 3A4 (P08684 whole entry): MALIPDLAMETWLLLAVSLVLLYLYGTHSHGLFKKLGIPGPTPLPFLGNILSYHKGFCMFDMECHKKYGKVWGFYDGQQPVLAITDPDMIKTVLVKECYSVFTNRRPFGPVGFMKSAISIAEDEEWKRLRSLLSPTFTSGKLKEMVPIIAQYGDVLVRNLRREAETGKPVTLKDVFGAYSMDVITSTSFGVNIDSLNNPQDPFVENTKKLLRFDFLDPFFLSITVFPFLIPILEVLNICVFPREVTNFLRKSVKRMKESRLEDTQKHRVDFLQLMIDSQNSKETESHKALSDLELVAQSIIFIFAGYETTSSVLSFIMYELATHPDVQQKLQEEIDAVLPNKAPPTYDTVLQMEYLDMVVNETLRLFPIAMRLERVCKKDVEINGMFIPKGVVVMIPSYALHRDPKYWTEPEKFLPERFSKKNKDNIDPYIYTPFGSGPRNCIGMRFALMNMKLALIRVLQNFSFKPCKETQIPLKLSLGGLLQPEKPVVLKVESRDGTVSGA
# Chain of Cytochrome P450 2C9 (P11712 whole entry): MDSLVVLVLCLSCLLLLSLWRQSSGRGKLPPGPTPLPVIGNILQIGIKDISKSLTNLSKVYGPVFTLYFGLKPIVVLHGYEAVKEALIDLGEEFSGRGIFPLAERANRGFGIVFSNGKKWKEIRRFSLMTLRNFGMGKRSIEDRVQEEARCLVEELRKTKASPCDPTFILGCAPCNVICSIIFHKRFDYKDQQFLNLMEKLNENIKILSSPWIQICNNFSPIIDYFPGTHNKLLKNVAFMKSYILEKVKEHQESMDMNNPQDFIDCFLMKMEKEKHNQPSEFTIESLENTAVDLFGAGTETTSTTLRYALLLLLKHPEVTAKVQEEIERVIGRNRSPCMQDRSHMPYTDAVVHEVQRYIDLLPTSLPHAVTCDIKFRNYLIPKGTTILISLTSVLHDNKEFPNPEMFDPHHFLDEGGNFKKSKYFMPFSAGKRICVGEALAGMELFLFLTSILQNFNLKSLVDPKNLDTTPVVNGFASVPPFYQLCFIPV
smiles,measurement,setting,value
O=[N+]([O-])c1ccc(N2CCN(C(S)=Nc3ccc(F)cc3)CC2)cc1,AC50,[1],33.9 µM (active)
COc1ccc(-c2csc(CCn3nc(C)cc3C)n2)cc1,EC50,[2],> 112 µM (not active)
same,EC50,[3],> 112 µM (not active)
CCOC(=O)c1c(-c2ccc(Cl)cc2)csc1NC(=O)CNCc1ccco1,AC50,[4],2.72 µM (active)
Cc1cc(OCCCCN2C(=O)NC(C)(C)C2=O)cc(C)c1Cl,IC50,[5],> 100 µM (inactive)
Cc1cc(NC(=O)c2cc3ncc(Br)cn3n2)no1,EC50,[2],> 112 µM (not active)
same,EC50,[3],> 112 µM (not active)
Cc1cccc(NC(=O)Cn2c(/C=C/c3ccccc3)nc3ccccc32)c1,AC50,[1],30.6 µM (active)
CN(Cc1ccccc1)C(=O)CCn1c(=O)oc2ccccc21,EC50,[6],> 195 µM (not active)
CN(C)C(=O)c1ccc(-c2nccc(Nc3ccc(F)cc3)n2)cc1,AC50,[7],10 µM (inconclusive)
OC(c1ccccn1)c1c[nH]c2ccccc12 (configuration not stated),IC50,[5],> 100 µM (inactive)
Cc1ccc(C)c(NC(=O)c2sc(Cl)nc2-c2ccccc2)c1,IC50,[5],> 100 µM (inactive)
CCn1c(=O)c(C(=O)Nc2ccccc2F)c(O)c2ccccc21,EC50,[6],> 195 µM (not active)
COc1ccc(C2CC(c3ccccc3)=NN2S(=O)(=O)c2ccc(C)cc2)c(OC)c1 (configuration not stated),IC50,[5],> 100 µM (inactive)
O=C(OCC(=O)N1N=C(c2ccc(Cl)cc2)CC1c1ccco1)c1ccccc1O (configuration not stated),IC50,[5],> 100 µM (inactive)
CCCCN=C(S)NNc1c(Cl)cc(Cl)cc1Cl,EC50,[6],> 195 µM (not active)
Cn1ccnc1SCC(=O)N(C1CCCCC1)C1CCCCC1,EC50,[6],> 195 µM (not active)
CC(C)(C)NC(=O)c1cccc(NC(=O)Cc2cccs2)c1,EC50,[6],> 195 µM (not active)
CC(C)c1nc(-c2ccc([N+](=O)[O-])cc2)cs1,IC50,[5],13.4 µM (active)
O=C(/C=C/c1ccc2c(c1)OCO2)NCCSCc1c(Cl)cccc1Cl,AC50,[4],1.42 µM (active)
O=C(NC(=S)Nc1ccccc1N1CCCCC1)c1ccc(F)cc1Cl,AC50,[4],1.67 µM (active)
same,EC50,[8],> 150 µM (not active)
same,EC50,[9],3.75 µM (active)
same,EC50,[10],5.06 µM (active)
Cc1ccc(NC(=O)N2CCCC2C(=O)NCC2CCCCC2)cc1 (configuration not stated),EC50,[6],> 195 µM (not active)
Cn1c(=O)c2ncn(CC(=O)Nc3ccc4c5c(cccc35)CC4)c2n(C)c1=O,IC50,[5],> 100 µM (inactive)
same,EC50,[6],> 195 µM (not active)
O=C(CSc1nnc(-c2cccnc2)n1Cc1ccccc1)N1CCOCC1,EC50,[2],17.2 µM (active)
same,EC50,[3],> 112 µM (not active)
CCN(CC(=O)NCc1ccc(Cl)cc1)C(=O)CSc1ccc(Br)cc1,EC50,[2],> 112 µM (not active)
same,EC50,[3],43.9 µM (active)
Cc1cccc(N2CCN(C(c3ccccc3)c3nnnn3CC3CCCO3)CC2)c1C (configuration not stated),EC50,[6],> 195 µM (not active)
COc1ccccc1NC(=O)C1=C(C)Nc2nnnn2C1c1ccccc1OC (configuration not stated),EC50,[2],72.3 µM (active)
same,EC50,[3],> 112 µM (not active)
CCOC(=O)c1cc(-c2ccco2)nc2c1c(C)nn2-c1ccccc1,IC50,[5],> 100 µM (inactive)
O=C(Nc1ccc(Nc2ccccc2)cc1)Nc1ccccc1Cl,AC50,[4],2.12 µM (active)
CCOCC(=O)Nc1cccc(Br)c1,IC50,[5],> 100 µM (inactive)
O=C(COC(=O)[C@H](Cc1ccccc1)N1C(=O)c2ccccc2C1=O)Nc1ccc2c(c1)OCO2,EC50,[6],> 195 µM (not active)
Cn1c(SCC(=O)N2CCCC2)nnc1-c1cccs1,EC50,[2],> 112 µM (not active)
same,EC50,[3],> 112 µM (not active)
CC(=O)Nc1cccc(NC(=O)CSc2nnc(Cc3cccn3C)n2-c2ccc(F)cc2)c1,EC50,[6],> 195 µM (not active)
CCOC(=O)CSc1nc(O)c2c(n1)-c1ccccc1CC2(C)CC (configuration not stated),AC50,[1],40.1 µM (active)
CC(=O)OCCNC(=O)Cn1cnc2c1c(=O)n(C)c(=O)n2C,EC50,[2],> 112 µM (not active)
same,EC50,[3],> 112 µM (not active)
Cc1cc(C)c(NC(=O)CSc2ccc3nnc(CCNC(=O)c4ccccc4)n3n2)c(C)c1,EC50,[2],> 112 µM (not active)
same,EC50,[3],> 112 µM (not active)
CC(=O)N(c1ccc2oc(=O)sc2c1)S(=O)(=O)c1ccc(C(=O)O)cc1,EC50,[6],> 195 µM (not active)
O=C(c1cccc(S(=O)(=O)N2CCOCC2)c1)N1CCN(c2ccc(F)cc2)CC1,EC50,[2],> 112 µM (not active)
same,EC50,[3],> 112 µM (not active)
Cc1cccc(CC(=O)NCCn2c(C)cc3ccccc32)c1,IC50,[5],> 100 µM (inactive)
CCCc1ccc(-c2cc(NC(=O)CSc3nnc(N)s3)n(-c3ccccc3)n2)cc1,AC50,[4],3.72 µM (active)
CN(C)CCNC(=O)c1sc2nc(-c3ccccc3)cc(C(F)(F)F)c2c1N,AC50,[4],2.65 µM (active)
Cn1c(=S)oc2ccccc21,EC50,[2],> 112 µM (not active)
same,EC50,[3],> 112 µM (not active)
Cn1c(N2CCOCC2)nc(-c2ccccc2)c1-c1ccccc1,EC50,[6],> 195 µM (not active)
Nc1nc(Cl)nc(N(c2ccccc2)c2ccccc2)n1,EC50,[6],> 195 µM (not active)
COc1ccc(C(=O)c2ccc3oc(-c4ccc(OC)cc4)c(-c4ccc(O)cc4)c3c2)cc1,AC50,[4],3.31 µM (active)
O=c1c2ccccc2oc2ccc(-c3ccc4cc[nH]c4c3)cc12,IC50,[5],> 100 µM (inactive)
CC(C)CC(C(=O)NCc1ccccn1)N1C(=O)c2ccccc2C1=O (configuration not stated),IC50,[5],> 100 µM (inactive)
COc1ccc(C(C)=O)cc1CN1C(=O)C(C)ON=C1c1cccc(C(F)(F)F)c1 (configuration not stated),IC50,[5],> 100 µM (inactive)
Cc1ccc(C(=O)N/N=C\c2cccn2C)cn1,AC50,[11],89.1 µM (inconclusive)
same,AC50,[7],0.316 µM (inconclusive)
NC(=S)N/N=C/c1c(O)c(Br)cc2oc3c(c12)CCCC3,AC50,[1],0.819 µM (active)
CP(=O)(O)C1=CCNCC1,AC50,[7],39.8 µM (inconclusive)
Cc1cc(C)cc(C(=O)N(C)[C@H](Cc2ccc(-c3ccccc3)cc2)C(=O)N[C@@H](Cc2c[nH]c3ccccc23)C(=O)O)c1,AC50,[7],25.1 µM (inconclusive)
same,AC50,[12],39.8 µM (inconclusive)
COc1cc(N)c(Cl)cc1C(=O)OCCCN1CCCCC1,AC50,[7],25.1 µM (inconclusive)
